Reference: US7495027B2, “3-aryl-4-hydroxyfuranone compounds and the human and animal health use thereof” (Wyeth, priority 2003, dated 2009)

Experiments:
[1] = tested on: Trichostrongylus columbriformis; test: In vivo efficacy against T. colubriformis in infected gerbils; details: gerbils infected with T. colubriformis; single oral dose of 50 mg/kg by gavage; worm counts four days post-treatment; % mortality as compared to negative control
Protocol: In Vivo Evaluation of the Efficacy of Test Compounds Against T. colubriformis
In this evaluation, gerbils are infected with Trichostrongylus columbriformis infective larvae at a concentration of approximately 800 L3/mL. Larvae for gerbil infections are cultured from feces from sheep previously infected with T. colubriformis. One week post infection, test compounds are administered by gavage as a single oral dose of 50 mg/kg of body weight. For each group of 3 gerbils, 10 mg of test compound are dissolved in 2 mL of PEG 400:DMSO (1:2 v/v) and each animal is administered the test solution at a rate of 0.1 mL/10 g of body weight. […] All animals are observed daily for morbidity and mortality. Four days post-treatment, all animals are weighed and necropsied. Worm counts are conducted with the use of stereoscopes and counters.

[2] = tested on: larvae of blowfly, Lucilia sericata; test: whole plant or invertebrate; details: dose rate of 20 ppm, Lucilia sericata larvae on treated filter paper with bovine serum; for % Mortality 24 h: assessed at 24 h; for % Mortality 48 h: assessed at 48 h
Protocol: Comparative Evaluation of the Efficacy of a 3-Aryl-4-hydroxyfuranone Compound Against Blowfly Larvae
In this evaluation, filter paper discs are treated with an acetone solution of test compound and allowed to dry. Bovine serum and newly emerged larvae of blowfly, Lucilia sericata, are added to the treated filter paper. Mortality is assessed at 24 h and 48 h. When more than one evaluation is performed, the data are averaged.

SMILES | Mortality [1] | % Mortality 24 h [2] | % Mortality 48 h [2]
Cc1cc(/C=C2\OC(=O)C(c3cccc(Cl)c3)=C2O)ccc1-c1ccccc1C(F)(F)F | 11.20% |  | 
Cc1cc(/C=C2\OC(=O)C(c3cccc(Cl)c3)=C2O)ccc1-c1ccccc1Cl | 16.90% |  | 
COc1ccccc1-c1ccc(C=C2OC(=O)C(c3cccc(Cl)c3)=C2O)cc1C | 0.00% |  | 
COc1cc(/C=C2\OC(=O)C(c3cccc(Cl)c3)=C2O)ccc1-c1ccccc1Cl | 0.00% |  | 
Cc1ccc(C2=C(O)/C(=C/c3cccc(C(F)(F)F)c3Cl)OC2=O)cc1C | 36.50% |  | 
CCc1ccc(C2=C(O)C(=Cc3cc(C(F)(F)F)ccc3Cl)OC2=O)cc1 | 39.00% |  | 
O=C1OC(=Cc2cnccc2-c2cccc(Cl)c2)C(O)=C1c1ccc(OC(F)(F)F)cc1 (mixture of isomers) | 66.80% |  | 
O=C1OC(=Cc2cnccc2-c2ccc(Cl)cc2)C(O)=C1c1ccc(OC(F)(F)F)cc1 (mixture of isomers) | 84.60% |  | 
O=C1OC(=Cc2cnccc2-c2ccc(OC(F)(F)F)cc2)C(O)=C1c1ccc(OC(F)(F)F)cc1 (mixture of isomers) | 82.60% |  | 
O=C1OC(=Cc2cnccc2-c2ccc(Cl)s2)C(O)=C1c1ccc(OC(F)(F)F)cc1 (mixture of isomers) | 88.50% |  | 
CCCOc1ccc(C=C2OC(=O)C(c3ccc(OC(F)(F)F)cc3)=C2O)cc1 (mixture of isomers) | 10.40% |  | 
O=C1OC(=Cc2ccc(F)cc2)C(O)=C1c1cccc(C(F)(F)F)c1 (mixture of isomers) [R=H, R1=3-CF3—C6H4**, R2=4-F—C6H4] |  | 100% | 100%
N#Cc1cccc(C2=C(O)C(=Cc3ccc(C(F)(F)F)cc3)OC2=O)c1 (mixture of isomers) [R=H, R1=3-CN—C6H4**, R2=4-CF3—C6H4] |  | 0% | 0%
N#Cc1ccc(C=C2OC(=O)C(c3cccc(C#N)c3)=C2O)cc1 (mixture of isomers) [R=H, R1=3-CN—C6H4**, R2=4-CN—C6H4] |  | 0% | 0%
N#Cc1cccc(C2=C(O)C(=Cc3ccc(Cl)cc3)OC2=O)c1 (mixture of isomers) [R=H, R1=3-CN—C6H4**, R2=4-Cl—C6H4] |  | 0% | 0%
N#Cc1cccc(C2=C(O)C(=Cc3ccc(F)cc3)OC2=O)c1 (mixture of isomers) [R=H, R1=3-CN—C6H4**, R2=4-F—C6H4] |  | 0% | 0%
O=C1OC(=Cc2ccc(C(F)(F)F)cc2)C(O)=C1c1cccc(Cl)c1 (mixture of isomers) [R=H, R1=3-Cl—C6H4**, R2=4-CF3—C6H4] |  | 60% | 75%
N#Cc1ccc(C=C2OC(=O)C(c3cccc(Cl)c3)=C2O)cc1 (mixture of isomers) [R=H, R1=3-Cl—C6H4**, R2=4-CN—C6H4] |  | 0% | 0%
O=C1OC(=Cc2ccc(Cl)cc2)C(O)=C1c1cccc(Cl)c1 (mixture of isomers) [R=H, R1=3-Cl—C6H4**, R2=4-Cl—C6H4] |  | 0% | 0%
O=C1OC(=Cc2ccc(F)cc2)C(O)=C1c1cccc(Cl)c1 (mixture of isomers) [R=H, R1=3-Cl—C6H4**, R2=4-F—C6H4] |  | 0% | 0%
O=C1OC(=Cc2ccc(C(F)(F)F)cc2)C(O)=C1c1ccc(C(F)(F)F)cc1 (mixture of isomers) [R=H, R1=4-CF3—C6H4**, R2=4-CF3—C6H4] |  | 100% | 100%
N#Cc1ccc(C=C2OC(=O)C(c3ccc(C(F)(F)F)cc3)=C2O)cc1 (mixture of isomers) [R=H, R1=4-CF3—C6H4**, R2=4-CN—C6H4] |  | 100% | 100%
O=C1OC(=Cc2ccc(Cl)cc2)C(O)=C1c1ccc(C(F)(F)F)cc1 (mixture of isomers) [R=H, R1=4-CF3—C6H4**, R2=4-Cl—C6H4] |  | 100% | 100%
O=C1OC(=Cc2ccc(F)cc2)C(O)=C1c1ccc(C(F)(F)F)cc1 (mixture of isomers) [R=H, R1=4-CF3—C6H4**, R2=4-F—C6H4] |  | 100% | 100%
N#Cc1ccc(C2=C(O)C(=Cc3cccc(C(F)(F)F)c3)OC2=O)cc1 (mixture of isomers) [R=H, R1=4-CN—C6H4**, R2=3-CF3—C6H4] |  | 0% | 90%

SMILES | Mortality [1] | % Mortality 24 h [2] | % Mortality 48 h [2]
N#Cc1ccc(C2=C(O)C(=Cc3ccc(C(F)(F)F)cc3)OC2=O)cc1 (mixture of isomers) [R=H, R1=4-CN—C6H4**, R2=4-CF3—C6H4] |  | 100% | 100%
N#Cc1ccc(C=C2OC(=O)C(c3ccc(C#N)cc3)=C2O)cc1 (mixture of isomers) [R=H, R1=4-CN—C6H4**, R2=4-CN—C6H4] |  | 40% | 100%
N#Cc1ccc(C2=C(O)C(=Cc3ccc(Cl)cc3)OC2=O)cc1 (mixture of isomers) [R=H, R1=4-CN—C6H4**, R2=4-Cl—C6H4] |  | 25% | 100%
N#Cc1ccc(C2=C(O)C(=Cc3ccc(F)cc3)OC2=O)cc1 (mixture of isomers) [R=H, R1=4-CN—C6H4**, R2=4-F—C6H4] |  | 0% | 0%
O=C1OC(=Cc2ccccc2C(F)(F)F)C(O)=C1c1ccc(Cl)cc1 (mixture of isomers) [R=H, R1=4-Cl—C6H4**, R2=2-CF3—C6H4] |  | 10% | 10%
O=C1OC(=Cc2cccc(Cl)c2)C(O)=C1c1ccc(Cl)cc1 (mixture of isomers) [R=H, R1=4-Cl—C6H4**, R2=3-Cl—C6H4] |  | 0% | 0%
O=C1OC(=Cc2ccc(C(F)(F)F)cc2)C(O)=C1c1ccc(Cl)cc1 (mixture of isomers) [R=H, R1=4-Cl—C6H4**, R2=4-CF3—C6H4] |  | 100% | 100%
N#Cc1ccc(C=C2OC(=O)C(c3ccc(Cl)cc3)=C2O)cc1 (mixture of isomers) [R=H, R1=4-Cl—C6H4**, R2=4-CN—C6H4] |  | 0% | 90%
O=C1OC(=Cc2ccc(F)cc2)C(O)=C1c1ccc(Cl)cc1 (mixture of isomers) [R=H, R1=4-Cl—C6H4**, R2=4-F—C6H4] |  | 0% | 0%
O=C1OC(=Cc2ccc(C(F)(F)F)cc2)C(O)=C1c1ccc(F)cc1 (mixture of isomers) [R=H, R1=4-F—C6H4**, R2=4-CF3—C6H4] |  | 0% | 0%
N#Cc1ccc(C=C2OC(=O)C(c3ccc(F)cc3)=C2O)cc1 (mixture of isomers) [R=H, R1=4-F—C6H4**, R2=4-CN—C6H4] |  | 0% | 0%
O=C1OC(=Cc2ccc(Cl)cc2)C(O)=C1c1ccc(F)cc1 (mixture of isomers) [R=H, R1=4-F—C6H4**, R2=4-Cl—C6H4] |  | 0% | 0%
O=C1OC(=Cc2ccc(F)cc2)C(O)=C1c1ccc(F)cc1 (mixture of isomers) [R=H, R1=4-F—C6H4**, R2=4-F—C6H4] |  | 0% | 0%
COC1=C(c2cccc(C(F)(F)F)c2)C(=O)O/C1=C\c1ccccc1 [R=CH3, R1=3-CF3—C6H4, R2=C6H5] |  | 0% | 0%
O=C1O/C(=C\c2ccc(-c3ccccc3)c(F)c2)C(O)=C1c1cccc(C(F)(F)F)c1 [R=H, R1=3-CF3—C6H4, R2=4-(3-F-biphenyl)] |  | 0% | 0%
O=C1O/C(=C\c2cccc3ccccc23)C(O)=C1c1cccc(CO)c1 [R=H, R1=3-CH2OH—C6H4, R2=1-naphthyl] |  | 0% | 0%
N#Cc1ccc(-c2ccc(/C=C3\OC(=O)C(c4ccc(Cl)cc4)=C3O)cc2)cc1 [R=H, R1=4-Cl—C6H4*, R2=4-(4′-CN-biphenyl)] |  | 0% | 100%
N#Cc1ccc(-c2ccc(/C=C3\OC(=O)C(c4ccc(Cl)cc4)=C3O)cc2)cc1 [R=H, R1=4-Cl—C6H4, R2=4-(4′-CN-biphenyl)] |  | 0% | 0%
COc1ccc(C=C2OC(=O)C(c3ccc(Cl)cc3)=C2O)cc1 [R=H, R1=4-Cl—C6H4, R2=4-OMe—C6H4] |  | 0% | 0%
O=C1O/C(=C\c2cccc(C(F)(F)F)c2)C(O)=C1c1ccccc1 [R=H, R1=C6H5, R2=3-CF3—C6H4] |  | 0% | 0%
O=C1O/C(=C\c2ccccc2)C(O)=C1c1ccccc1C(F)(F)F [R=H; R1=2-CF3—C6H4; R2=C6H5] | 34.60% |  | 
O=C1O/C(=C\c2ccc(-c3ccccc3F)cc2)C(O)=C1c1ccccc1F [R=H; R1=2-F—C6H4; R2=4-(2′F-biphenyl)] | 12.40% |  | 
O=C1O/C(=C\c2cc(C(F)(F)F)ccc2F)C(O)=C1c1cccc(-c2ccccc2)c1 [R=H; R1=3-biphenyl; R2=2-F-5-CF3—C6H4] | 38.40% |  | 
O=C1O/C(=C\c2cc(F)cc(C(F)(F)F)c2)C(O)=C1c1cccc(-c2ccccc2)c1 [R=H; R1=3-biphenyl; R2=3-F-5-CF3—C6H4] | 0.00% |  | 
